Tests used:
Assay in all cases: biochemical
Set-up in all cases: DiscoveRx KINOMEscan competition binding, percent of DMSO control signal at 100 nM
Conditions in all cases: read-out: Fig. 4a / Percent Control / Compound 1; percent of DMSO control, competition binding
ANKK1 = ANKK1 (Homo sapiens, UniProt Q8NFD2)
CDK5 = CDK5 (Homo sapiens, UniProt Q00535)
CSF1R-autoinhibited = CSF1R-autoinhibited (Homo sapiens, UniProt P07333)
CSNK1G1 = CSNK1G1 (Homo sapiens, UniProt Q9HCP0)
CSNK2A2 = CSNK2A2 (Homo sapiens, UniProt P19784)
DRAK1 = target: T1, DRAK1 (Homo sapiens, UniProt Q9UEE5)
T1 construct: gene STK17A

[1] = target: EGFR(L747-E749del, A750P) (Homo sapiens, UniProt P00533, A750P/DEL747-749)
Chain of EGFR(L747-E749del, A750P) (P00533 with tags, fused parts or gaps DEL747-749/A750P): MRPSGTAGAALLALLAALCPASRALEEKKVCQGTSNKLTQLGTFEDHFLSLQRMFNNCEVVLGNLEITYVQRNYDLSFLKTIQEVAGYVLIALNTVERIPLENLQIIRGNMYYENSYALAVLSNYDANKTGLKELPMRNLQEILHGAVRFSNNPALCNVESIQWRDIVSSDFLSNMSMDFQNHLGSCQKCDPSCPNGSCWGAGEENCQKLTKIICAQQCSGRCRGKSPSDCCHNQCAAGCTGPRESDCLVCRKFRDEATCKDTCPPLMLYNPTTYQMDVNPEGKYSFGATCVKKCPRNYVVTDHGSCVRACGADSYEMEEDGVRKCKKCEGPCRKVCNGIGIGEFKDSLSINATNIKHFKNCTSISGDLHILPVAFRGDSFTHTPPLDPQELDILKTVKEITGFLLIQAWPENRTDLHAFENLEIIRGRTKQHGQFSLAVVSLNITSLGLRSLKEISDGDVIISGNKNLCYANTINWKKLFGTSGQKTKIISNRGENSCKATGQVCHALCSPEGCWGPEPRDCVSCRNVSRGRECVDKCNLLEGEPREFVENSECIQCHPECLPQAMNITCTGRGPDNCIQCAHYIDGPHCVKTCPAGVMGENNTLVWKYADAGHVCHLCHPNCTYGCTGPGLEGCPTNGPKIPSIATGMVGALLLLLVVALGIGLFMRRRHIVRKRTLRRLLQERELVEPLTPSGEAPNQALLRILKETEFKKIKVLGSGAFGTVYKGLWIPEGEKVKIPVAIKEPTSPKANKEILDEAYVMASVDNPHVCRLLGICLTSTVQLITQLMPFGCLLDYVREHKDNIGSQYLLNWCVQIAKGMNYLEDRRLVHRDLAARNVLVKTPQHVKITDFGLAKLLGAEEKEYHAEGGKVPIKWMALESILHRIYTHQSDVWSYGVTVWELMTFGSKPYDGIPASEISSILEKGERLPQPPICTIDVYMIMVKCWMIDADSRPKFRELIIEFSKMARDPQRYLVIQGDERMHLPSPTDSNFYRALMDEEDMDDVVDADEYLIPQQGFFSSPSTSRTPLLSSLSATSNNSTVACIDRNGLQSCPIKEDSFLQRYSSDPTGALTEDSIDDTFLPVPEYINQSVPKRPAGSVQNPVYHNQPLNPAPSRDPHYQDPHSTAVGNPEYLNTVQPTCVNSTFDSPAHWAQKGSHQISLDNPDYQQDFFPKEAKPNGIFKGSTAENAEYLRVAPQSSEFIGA

EPHA3 = EPHA3 (Homo sapiens, UniProt P29320)
FLT1 = FLT1 (Homo sapiens, UniProt P17948)
FLT3 = FLT3 (Homo sapiens, UniProt P36888)
JNK1 = target: T2, JNK1 (Homo sapiens, UniProt P45983)
T2 construct: gene MAPK8
T2 sequence (P45983 whole entry): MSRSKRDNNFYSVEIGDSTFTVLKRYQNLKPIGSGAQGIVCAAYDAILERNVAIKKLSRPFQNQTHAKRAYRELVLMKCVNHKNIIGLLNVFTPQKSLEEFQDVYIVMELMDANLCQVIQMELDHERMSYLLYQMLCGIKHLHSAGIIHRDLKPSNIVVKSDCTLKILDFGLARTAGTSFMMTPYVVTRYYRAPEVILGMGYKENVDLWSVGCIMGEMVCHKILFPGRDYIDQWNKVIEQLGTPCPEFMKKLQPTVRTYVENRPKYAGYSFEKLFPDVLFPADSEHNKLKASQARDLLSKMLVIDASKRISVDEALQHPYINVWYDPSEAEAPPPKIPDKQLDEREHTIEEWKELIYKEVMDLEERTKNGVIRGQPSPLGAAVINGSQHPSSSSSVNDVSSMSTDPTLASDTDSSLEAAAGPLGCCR

KIT = KIT (Homo sapiens, UniProt P10721)
MLK1 = target: T3, MLK1 (Homo sapiens, UniProt P80192)
T3 construct: gene MAP3K9

MRCKA = target: T4, MRCKA (Homo sapiens, UniProt Q5VT25)
T4 construct: gene CDC42BPA

NLK = NLK (Homo sapiens, UniProt Q9UBE8)
PCTK2 = target: T5, PCTK2 (Homo sapiens, UniProt Q00537)
T5 construct: gene CDK17
T5 sequence (Q00537 whole entry): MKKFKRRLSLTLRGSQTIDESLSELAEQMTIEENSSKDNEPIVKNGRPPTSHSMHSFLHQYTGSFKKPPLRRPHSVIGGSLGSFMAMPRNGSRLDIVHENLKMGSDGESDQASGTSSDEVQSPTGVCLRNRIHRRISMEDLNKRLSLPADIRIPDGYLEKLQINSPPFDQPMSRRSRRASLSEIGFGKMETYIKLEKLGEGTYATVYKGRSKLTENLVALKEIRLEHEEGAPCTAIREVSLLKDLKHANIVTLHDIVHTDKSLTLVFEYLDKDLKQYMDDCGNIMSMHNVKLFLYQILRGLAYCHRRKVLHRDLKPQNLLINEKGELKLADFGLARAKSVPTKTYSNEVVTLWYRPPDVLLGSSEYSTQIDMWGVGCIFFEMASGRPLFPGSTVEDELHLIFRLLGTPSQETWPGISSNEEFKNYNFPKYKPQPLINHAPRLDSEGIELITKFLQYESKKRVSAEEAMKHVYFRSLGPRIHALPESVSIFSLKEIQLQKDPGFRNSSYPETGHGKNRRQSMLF

PFTAIRE2 = target: T6, PFTAIRE2 (Homo sapiens, UniProt Q96Q40)
T6 construct: gene CDK15
T6 sequence (Q96Q40 whole entry): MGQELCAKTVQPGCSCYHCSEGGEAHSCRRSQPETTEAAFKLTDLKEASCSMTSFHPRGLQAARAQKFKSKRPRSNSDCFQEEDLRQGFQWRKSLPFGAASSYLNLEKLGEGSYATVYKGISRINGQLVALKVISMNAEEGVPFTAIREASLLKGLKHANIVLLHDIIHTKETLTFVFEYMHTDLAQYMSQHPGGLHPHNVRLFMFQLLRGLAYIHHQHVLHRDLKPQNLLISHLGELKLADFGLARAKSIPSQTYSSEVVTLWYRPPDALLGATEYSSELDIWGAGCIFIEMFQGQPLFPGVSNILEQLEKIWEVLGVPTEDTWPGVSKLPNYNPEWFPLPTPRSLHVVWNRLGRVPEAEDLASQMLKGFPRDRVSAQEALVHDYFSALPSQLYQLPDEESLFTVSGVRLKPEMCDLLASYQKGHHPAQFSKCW

RIOK2 = RIOK2 (Homo sapiens, UniProt Q9BVS4)
SIK2 = SIK2 (Homo sapiens, UniProt Q9H0K1)
SYK = SYK (Homo sapiens, UniProt P43405)
TNNI3K = TNNI3K (Homo sapiens, UniProt Q59H18)
Chain of TNNI3K (Q59H18 whole entry): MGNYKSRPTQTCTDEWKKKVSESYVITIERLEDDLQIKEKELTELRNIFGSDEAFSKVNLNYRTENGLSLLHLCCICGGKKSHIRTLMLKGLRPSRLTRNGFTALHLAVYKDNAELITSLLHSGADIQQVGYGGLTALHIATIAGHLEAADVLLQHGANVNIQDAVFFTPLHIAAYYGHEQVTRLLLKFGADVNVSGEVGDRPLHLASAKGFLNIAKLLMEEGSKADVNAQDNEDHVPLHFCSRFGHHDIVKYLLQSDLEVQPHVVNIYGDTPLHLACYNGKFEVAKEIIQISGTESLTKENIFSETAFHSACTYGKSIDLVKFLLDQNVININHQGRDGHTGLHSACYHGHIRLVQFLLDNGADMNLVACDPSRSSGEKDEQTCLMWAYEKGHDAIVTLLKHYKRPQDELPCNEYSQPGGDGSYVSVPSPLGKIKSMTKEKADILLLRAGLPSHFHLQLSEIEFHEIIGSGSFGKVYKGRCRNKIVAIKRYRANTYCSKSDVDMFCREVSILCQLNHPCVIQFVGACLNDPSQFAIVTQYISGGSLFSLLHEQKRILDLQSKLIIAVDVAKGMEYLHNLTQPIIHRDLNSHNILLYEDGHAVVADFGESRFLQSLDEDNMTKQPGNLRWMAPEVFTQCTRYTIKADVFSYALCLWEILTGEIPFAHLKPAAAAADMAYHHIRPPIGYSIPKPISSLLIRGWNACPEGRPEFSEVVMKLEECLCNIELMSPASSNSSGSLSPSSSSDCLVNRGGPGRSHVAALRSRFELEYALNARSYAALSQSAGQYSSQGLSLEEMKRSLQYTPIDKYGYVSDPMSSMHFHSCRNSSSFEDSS

ULK2 = ULK2 (Homo sapiens, UniProt Q8IYT8)
VEGFR2 = target: T7, VEGFR2 (Homo sapiens, UniProt P35968)
T7 construct: gene KDR

YSK1 = target: T8, YSK1 (Homo sapiens, UniProt O00506)
T8 construct: gene STK25

YSK4 = target: T9, YSK4 (Homo sapiens, UniProt Q56UN5)
T9 construct: gene MAP3K19
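Further: KINOMEscan kinase panel binding assay, signal normalized between DMSO as 100% and a positive control compound as 0%.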

Chain of CSNK1G1 (Q9HCP0 whole entry): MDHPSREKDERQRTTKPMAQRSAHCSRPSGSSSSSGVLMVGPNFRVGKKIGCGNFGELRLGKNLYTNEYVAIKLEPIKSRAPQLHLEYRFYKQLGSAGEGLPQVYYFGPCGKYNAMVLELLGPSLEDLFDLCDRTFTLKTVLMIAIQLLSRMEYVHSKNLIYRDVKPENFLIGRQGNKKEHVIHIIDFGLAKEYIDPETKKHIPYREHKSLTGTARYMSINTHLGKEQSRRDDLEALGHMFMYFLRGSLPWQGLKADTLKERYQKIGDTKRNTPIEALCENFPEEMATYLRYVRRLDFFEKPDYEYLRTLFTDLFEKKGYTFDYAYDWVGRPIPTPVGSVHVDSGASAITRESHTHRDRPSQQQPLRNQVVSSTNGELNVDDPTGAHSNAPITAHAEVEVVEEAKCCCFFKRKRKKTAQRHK
Chain of ANKK1 (Q8NFD2 whole entry): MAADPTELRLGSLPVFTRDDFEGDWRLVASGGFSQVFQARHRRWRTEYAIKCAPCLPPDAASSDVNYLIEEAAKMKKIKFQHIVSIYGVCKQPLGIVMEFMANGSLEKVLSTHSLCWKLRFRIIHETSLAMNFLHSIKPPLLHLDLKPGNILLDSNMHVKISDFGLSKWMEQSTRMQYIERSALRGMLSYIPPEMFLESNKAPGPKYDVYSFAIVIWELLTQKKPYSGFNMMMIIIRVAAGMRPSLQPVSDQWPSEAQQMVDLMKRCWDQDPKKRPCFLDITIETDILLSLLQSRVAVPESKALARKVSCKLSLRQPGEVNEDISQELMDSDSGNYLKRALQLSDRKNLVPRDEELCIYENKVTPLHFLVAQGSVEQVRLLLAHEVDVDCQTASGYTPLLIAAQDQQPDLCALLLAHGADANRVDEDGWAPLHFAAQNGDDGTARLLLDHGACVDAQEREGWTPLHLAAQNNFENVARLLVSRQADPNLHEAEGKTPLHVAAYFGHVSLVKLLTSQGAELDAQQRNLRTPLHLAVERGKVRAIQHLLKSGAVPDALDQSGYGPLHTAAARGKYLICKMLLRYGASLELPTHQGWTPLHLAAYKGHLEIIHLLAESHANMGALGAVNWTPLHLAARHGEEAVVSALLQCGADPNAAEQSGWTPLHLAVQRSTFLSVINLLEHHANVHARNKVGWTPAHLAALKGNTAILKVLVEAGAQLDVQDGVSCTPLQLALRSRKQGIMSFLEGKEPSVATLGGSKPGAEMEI
Chain of CDK5 (Q00535 whole entry): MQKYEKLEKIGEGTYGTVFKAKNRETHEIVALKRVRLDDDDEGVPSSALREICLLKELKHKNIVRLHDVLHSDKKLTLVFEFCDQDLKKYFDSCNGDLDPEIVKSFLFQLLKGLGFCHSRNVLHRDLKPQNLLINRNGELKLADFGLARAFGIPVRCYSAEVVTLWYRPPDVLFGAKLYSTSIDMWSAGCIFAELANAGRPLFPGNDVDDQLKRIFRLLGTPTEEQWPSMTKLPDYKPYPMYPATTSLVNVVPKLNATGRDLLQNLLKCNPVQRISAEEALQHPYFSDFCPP

Cc1cnc2nc1Nc1cccc(c1)COCc1cc(ccc1OCCN1CCCC1)N2 [Compound 1] was tested, and the remaining binding at 0.1 µM (ANKK1) was 86%, the remaining binding at 0.1 µM (CDK5) was 100% and the remaining binding at 0.1 µM (CSF1R-autoinhibited) was 54%. The remaining binding at 0.1 µM (CSNK1G1) was 91%, the remaining binding at 0.1 µM (CSNK2A2) was 62% and the remaining binding at 0.1 µM (DRAK1) was 100%. The remaining binding at 0.1 µM [1] was 88%, the remaining binding at 0.1 µM (EPHA3) was 85% and the remaining binding at 0.1 µM (FLT1) was 100%. The remaining binding at 0.1 µM (FLT3) was 36%, the remaining binding at 0.1 µM (JNK1) was 50% and the remaining binding at 0.1 µM (KIT) was 57%. For the same compound, the remaining binding at 0.1 µM (MLK1) was 100%, the remaining binding at 0.1 µM (MRCKA) was 99% and the remaining binding at 0.1 µM (NLK) was 95%. The remaining binding at 0.1 µM (PCTK2) was 98%, the remaining binding at 0.1 µM (PFTAIRE2) was 85% and the remaining binding at 0.1 µM (RIOK2) was 84%. The remaining binding at 0.1 µM (SIK2) was 94%, the remaining binding at 0.1 µM (SYK) was 99% and the remaining binding at 0.1 µM (TNNI3K) was 100%. For the same compound, the remaining binding at 0.1 µM (ULK2) was 83%, the remaining binding at 0.1 µM (VEGFR2) was 63% and the remaining binding at 0.1 µM (YSK1) was 91%. It also gave a remaining binding at 0.1 µM (YSK4) of 11%.
